Experimental data reported in patent US20200163943A1, “METHODS FOR TREATING DRAVET SYNDROME” (Cavion, Inc., priority 2017, published 2020).

Tests used:
hERG = hERG (Homo sapiens, UniProt Q12809); assay: hERG counter-screen; format: biochemical
Papp permeability = format: in vitro ADME; details: not told
Panlabs = Panlabs selectivity panel
[1] = Pharmacokinetics in monkey; format: in vivo
Pharmacokinetics in dog = format: in vivo
α1I [2] = biological target: T1, α1I (Homo sapiens, UniProt Q9P0X4); assay: α1I VC (voltage clamp) at set holding potentials; format: cell-based
T1 sequence (Q9P0X4 whole entry): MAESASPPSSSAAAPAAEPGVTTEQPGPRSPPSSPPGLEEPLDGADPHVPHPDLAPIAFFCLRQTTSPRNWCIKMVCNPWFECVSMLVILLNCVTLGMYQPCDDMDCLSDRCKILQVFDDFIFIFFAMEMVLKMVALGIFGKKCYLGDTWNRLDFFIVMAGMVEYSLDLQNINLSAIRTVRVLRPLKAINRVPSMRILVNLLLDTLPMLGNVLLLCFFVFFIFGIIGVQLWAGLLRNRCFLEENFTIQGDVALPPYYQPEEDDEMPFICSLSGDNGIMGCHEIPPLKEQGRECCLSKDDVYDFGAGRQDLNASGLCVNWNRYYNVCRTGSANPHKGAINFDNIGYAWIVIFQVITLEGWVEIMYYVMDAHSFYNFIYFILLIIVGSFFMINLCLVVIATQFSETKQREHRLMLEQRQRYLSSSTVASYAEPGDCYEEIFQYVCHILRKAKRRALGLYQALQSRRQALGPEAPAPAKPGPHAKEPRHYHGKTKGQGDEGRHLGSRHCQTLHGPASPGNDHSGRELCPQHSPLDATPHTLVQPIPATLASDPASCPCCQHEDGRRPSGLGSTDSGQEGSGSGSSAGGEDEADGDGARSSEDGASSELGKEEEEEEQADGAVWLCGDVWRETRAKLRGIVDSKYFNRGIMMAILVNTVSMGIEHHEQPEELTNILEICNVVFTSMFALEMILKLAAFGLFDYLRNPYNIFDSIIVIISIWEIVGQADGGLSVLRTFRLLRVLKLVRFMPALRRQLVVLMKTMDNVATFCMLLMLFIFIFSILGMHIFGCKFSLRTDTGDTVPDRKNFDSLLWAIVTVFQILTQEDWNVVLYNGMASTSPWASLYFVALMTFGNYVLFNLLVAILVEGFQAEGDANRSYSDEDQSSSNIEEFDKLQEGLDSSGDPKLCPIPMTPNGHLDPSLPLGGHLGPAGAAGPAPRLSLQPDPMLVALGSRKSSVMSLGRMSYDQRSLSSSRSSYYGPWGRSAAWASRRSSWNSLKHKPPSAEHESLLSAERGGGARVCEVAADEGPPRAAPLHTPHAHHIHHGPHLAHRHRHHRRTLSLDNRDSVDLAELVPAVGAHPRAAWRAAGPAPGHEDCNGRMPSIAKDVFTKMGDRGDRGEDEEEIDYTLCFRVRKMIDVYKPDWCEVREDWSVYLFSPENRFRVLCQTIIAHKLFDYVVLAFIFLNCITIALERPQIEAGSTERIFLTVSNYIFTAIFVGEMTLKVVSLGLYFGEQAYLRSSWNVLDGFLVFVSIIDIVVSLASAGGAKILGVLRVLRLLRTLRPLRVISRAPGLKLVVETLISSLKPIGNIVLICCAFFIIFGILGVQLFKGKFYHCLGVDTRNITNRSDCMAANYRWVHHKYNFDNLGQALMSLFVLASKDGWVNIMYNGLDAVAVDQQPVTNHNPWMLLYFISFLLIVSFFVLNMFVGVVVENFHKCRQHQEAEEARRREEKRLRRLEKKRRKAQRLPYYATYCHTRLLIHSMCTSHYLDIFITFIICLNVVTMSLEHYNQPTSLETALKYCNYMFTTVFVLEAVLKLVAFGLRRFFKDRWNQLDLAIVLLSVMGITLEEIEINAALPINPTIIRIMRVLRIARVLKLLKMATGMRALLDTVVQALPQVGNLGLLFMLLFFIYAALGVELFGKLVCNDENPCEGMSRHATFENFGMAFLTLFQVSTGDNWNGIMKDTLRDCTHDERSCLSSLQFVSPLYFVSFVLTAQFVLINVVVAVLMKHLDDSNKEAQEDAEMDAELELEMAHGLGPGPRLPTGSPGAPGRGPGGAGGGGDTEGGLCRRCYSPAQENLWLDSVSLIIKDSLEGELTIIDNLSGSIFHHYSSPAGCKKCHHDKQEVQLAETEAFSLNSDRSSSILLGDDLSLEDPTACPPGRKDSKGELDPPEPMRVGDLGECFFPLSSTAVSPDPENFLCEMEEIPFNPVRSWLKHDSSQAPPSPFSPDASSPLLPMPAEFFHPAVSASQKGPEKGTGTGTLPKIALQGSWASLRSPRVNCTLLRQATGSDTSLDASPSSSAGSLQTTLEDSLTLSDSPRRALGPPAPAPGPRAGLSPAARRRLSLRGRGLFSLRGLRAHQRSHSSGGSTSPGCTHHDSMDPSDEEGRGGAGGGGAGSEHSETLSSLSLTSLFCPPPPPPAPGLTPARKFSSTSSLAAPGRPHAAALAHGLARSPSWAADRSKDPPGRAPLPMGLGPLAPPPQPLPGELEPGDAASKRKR

N-Type = N-Type (Homo sapiens, UniProt Q00975); assay: N-Type calcium channel counter-screen; format: biochemical
α1I [3] = biological target: T1, α1I; assay: α1I potency; format: cell-based
Na Channel = Na Channel counter-screen; format: biochemical
Pharmacokinetics in rat = format: in vivo
WAG/Rij = WAG/Rij in vivo model; details: 10 mpk, @4 hr
PGP = PGP (Homo sapiens, UniProt P08183); assay: PGP substrate assay; format: in vitro ADME
PGP, sequence (P08183 whole entry): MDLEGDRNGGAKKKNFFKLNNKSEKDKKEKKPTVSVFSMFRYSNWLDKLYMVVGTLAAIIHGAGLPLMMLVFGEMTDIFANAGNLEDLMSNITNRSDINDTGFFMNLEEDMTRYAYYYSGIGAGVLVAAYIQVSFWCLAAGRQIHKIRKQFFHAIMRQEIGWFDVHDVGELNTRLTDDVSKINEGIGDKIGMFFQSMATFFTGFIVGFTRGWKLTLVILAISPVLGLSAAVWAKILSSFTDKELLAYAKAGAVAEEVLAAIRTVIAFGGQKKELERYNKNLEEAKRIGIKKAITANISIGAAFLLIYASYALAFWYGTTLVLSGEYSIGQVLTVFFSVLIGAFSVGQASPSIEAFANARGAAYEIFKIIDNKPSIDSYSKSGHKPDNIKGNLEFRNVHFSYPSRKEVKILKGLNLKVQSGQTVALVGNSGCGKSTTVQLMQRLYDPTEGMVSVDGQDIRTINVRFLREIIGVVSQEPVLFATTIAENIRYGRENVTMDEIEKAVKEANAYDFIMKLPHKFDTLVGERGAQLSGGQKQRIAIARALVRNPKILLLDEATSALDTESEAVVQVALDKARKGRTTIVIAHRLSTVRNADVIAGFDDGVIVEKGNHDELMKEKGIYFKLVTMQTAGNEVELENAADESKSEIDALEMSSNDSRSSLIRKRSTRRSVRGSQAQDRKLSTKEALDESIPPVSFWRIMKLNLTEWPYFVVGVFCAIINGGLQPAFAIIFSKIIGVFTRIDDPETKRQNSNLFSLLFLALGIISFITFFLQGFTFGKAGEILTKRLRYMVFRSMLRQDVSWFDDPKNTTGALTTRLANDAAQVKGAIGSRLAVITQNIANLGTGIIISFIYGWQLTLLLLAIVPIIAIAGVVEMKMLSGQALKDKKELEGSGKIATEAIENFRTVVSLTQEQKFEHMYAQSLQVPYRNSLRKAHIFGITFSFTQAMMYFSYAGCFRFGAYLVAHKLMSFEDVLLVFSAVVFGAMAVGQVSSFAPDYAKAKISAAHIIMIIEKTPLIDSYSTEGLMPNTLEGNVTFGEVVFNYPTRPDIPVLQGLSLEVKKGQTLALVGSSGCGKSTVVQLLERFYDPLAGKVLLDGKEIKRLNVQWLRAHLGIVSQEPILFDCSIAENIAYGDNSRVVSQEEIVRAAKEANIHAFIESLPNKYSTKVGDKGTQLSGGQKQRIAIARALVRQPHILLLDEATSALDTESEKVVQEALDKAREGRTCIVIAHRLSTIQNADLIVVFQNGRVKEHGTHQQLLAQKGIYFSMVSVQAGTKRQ

L-Type = L-Type calcium channel counter-screen; format: biochemical
α1I + Kir = α1I + Kir (Homo sapiens, UniProt Q9P0X4); assay: α1I + Kir potency; format: cell-based
α1I + Kir, sequence (Q9P0X4 whole entry): as the sequence (Q9P0X4 whole entry) above

[4] = plasma, 3 mg/kg, PO (1% methylcellulose), 3 mpk
[5] = plasma, 1 mg/kg, PO (1% methylcellulose), 1 mpk
[6] = plasma, 10 mg/kg, PO (1% methylcellulose), 10 mpk

hERG, sequence (Q12809 whole entry): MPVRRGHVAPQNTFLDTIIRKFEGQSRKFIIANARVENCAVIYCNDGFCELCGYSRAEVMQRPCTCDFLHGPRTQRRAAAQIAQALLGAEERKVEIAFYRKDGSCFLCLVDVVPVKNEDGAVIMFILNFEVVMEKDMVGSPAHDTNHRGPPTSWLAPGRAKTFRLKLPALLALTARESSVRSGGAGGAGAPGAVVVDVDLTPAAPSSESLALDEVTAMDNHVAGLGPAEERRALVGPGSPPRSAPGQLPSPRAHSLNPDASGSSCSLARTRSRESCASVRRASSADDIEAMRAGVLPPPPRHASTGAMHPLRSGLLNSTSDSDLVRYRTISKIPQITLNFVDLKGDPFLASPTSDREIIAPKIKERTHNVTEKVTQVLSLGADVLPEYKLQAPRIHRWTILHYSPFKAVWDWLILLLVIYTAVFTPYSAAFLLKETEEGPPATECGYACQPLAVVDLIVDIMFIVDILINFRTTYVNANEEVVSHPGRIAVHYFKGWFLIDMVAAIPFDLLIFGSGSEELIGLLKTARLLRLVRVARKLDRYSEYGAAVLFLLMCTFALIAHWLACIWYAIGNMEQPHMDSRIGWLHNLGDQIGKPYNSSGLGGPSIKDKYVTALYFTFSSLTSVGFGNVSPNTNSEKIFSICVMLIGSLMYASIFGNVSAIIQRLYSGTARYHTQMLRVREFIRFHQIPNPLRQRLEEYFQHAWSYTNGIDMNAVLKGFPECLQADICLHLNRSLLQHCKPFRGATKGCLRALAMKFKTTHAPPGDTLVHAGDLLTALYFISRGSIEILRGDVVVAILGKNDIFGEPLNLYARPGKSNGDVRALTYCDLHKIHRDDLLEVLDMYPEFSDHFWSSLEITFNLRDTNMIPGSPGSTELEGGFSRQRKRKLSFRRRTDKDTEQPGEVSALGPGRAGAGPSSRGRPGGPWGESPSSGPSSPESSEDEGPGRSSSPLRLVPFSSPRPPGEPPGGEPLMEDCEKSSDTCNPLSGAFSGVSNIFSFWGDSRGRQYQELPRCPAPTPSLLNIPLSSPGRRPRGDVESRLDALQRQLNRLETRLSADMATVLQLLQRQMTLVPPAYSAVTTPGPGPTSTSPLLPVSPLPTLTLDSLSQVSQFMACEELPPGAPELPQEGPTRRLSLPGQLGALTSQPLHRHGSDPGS

C[C@@H](NC(=O)Cc1ccc(C2CC2)cc1)c1ccc(OCC(F)(F)F)cn1 [TTA-A2]
IC50 (hERG): > 10000 nM | Papp (Papp permeability): 490 ×10⁻⁶ cm/s | Panlabs hits >50% @10 uM (Panlabs): 0 hits >50% @10 uM | Clp ([1]; IV (DMSO)): 17 mL/min/kg | T1/2 ([1]; IV (DMSO)): 0.9 h | F ([1]; PO (1% methylcellulose), 3 mpk): 7% | AUC [1, 4]: 0.6 µM·h | Cmax [1, 4]: 300 nM | Clp (Pharmacokinetics in dog; IV (DMSO)): 0.9 mL/min/kg | T1/2 (Pharmacokinetics in dog; IV (DMSO)): 11 h | F (Pharmacokinetics in dog; PO (1% methylcellulose), 1 mpk): 43% | AUC (Pharmacokinetics in dog; [5]): 23 µM·h | Cmax (Pharmacokinetics in dog; [5]): 2100 nM | IC50 (α1I [2]; −80 mV, read-out: a1I VC (−80 mV)): 98 nM | IC50 (α1I [2]; −100 mV, read-out: α1I VC (−100 mV)): 4200 nM | IC50 (N-Type): > 10000 nM | IC50 (α1I [3]): 9 nM | IC50 (Na Channel): > 10000 nM | Clp (Pharmacokinetics in rat; IV (DMSO)): 6 mL/min/kg | F (Pharmacokinetics in rat; PO (1% methylcellulose), 10 mpk): 68% | AUC (Pharmacokinetics in rat; [6]): 46 µM·h | Cmax (Pharmacokinetics in rat; [6]): 7600 nM | half-life (Pharmacokinetics in rat; plasma, IV (DMSO)): 1.6 h | WAG/Rij inhibition (WAG/Rij): 87% inhibition@4 hr | PGP (PGP): 0.7 | IC50 (L-Type): > 10000 nM | IC50 (α1I + Kir): 296 nM
